Data: paper PMC9141032 (International Journal of Molecular Sciences, 2022)

Assays:
[1] = Stability in mouse plasma; type: in vitro ADME; conditions: 10 µM, 37 °C
Method: The assessment of the plasma stability avoids misleading in vitro data and complex interpretation of the in vivo PK. […] Then, centrifugation led to a supernatant that was analysed for sample quantification.
Mouse plasma pooled from healthy donors extracted in citrate tubes was employed in the assay. […] Then, 100 µL of acetonitrile was added to precipitate the plasma protein, and the plate was centrifuged at 46,000× g for 60 min at 5 °C. Supernatant was taken and analysed by UPLC/MS/MS for sample quantification. The stationary phase was a reverse phase Acquity UPLC®BEH C18 1.7 µm (2.1 × 50 mm) (Waters), and the mobile phase was 0.1% formic acid in water/0.1% formic acid in acetonitrile, using a gradient and flow rate of 0.6 mL/min. The chromatographic equipment employed was an UPLC QSM Waters Acquity, and the compound concentrations were calculated from the MS peak areas.

[2] = tested on: mice; set-up: method as in ref 33 = [33]; PMID 32150414; doi:10.1021/acs.jmedchem.9b02080; 33. Abás S. Rodríguez-Arévalo S. Bagán A. Griñán-Ferré C. Vasilopoulou F. Brocos-Mosquera I. Muguruza C. Pérez B. Molins E. Luque F.J. Bicyclic α-Iminophosphonates as High Affinity Imidazoline I 2 Rec; conditions: repeated administration of 20 mg/kg for 5 days; cited from earlier work
[3] = Metabolic stability in mouse liver microsomes; conditions: for % compound remaining: MLM
Method: The final concentration assay was 1
NADPH in 100 mM potassium phosphate buffer.
Spectrometer, Metabolite Pilot V 1.5 Software.
Method: Ionization mode, electrospray positive; adquisition mode, TOF MS with IDA MS/MS; column, Atlantis T3 C18, 2.1 x 15 mm, 3 μm; mobile phase, wa te r: acetonitrile: 0.1%: formic acid; flow rate, 0.3 mL/min; source temperature, 550 °C; column temperature, 25 °C; injection volume, 5 […]
concentration 1 mg/mL, NADPH 1.3 mM.
Table S5. Summary of LC‐MS conditions […]

[4] = tested on: culture cells; set-up: method as in ref 32, 33 = [32]; 32. Escolano C. Pallás M. Griñán-Ferré C. Abás S. Callado L.-F. García-Sevilla J.A. Synthetic I 2 Imidazoline Receptor Ligands for Prevention or Treatment of Human Brain Disorders Patent WO 2019/12185 || [33]; PMID 32150414; doi:10.1021/acs.jmedchem.9b02080; 33. Abás S. Rodríguez-Arévalo S. Bagán A. Griñán-Ferré C. Vasilopoulou F. Brocos-Mosquera I. Muguruza C. Pérez B. Molins E. Luque F.J. Bicyclic α-Iminophosphonates as High Affinity Imidazoline I 2 Rec; conditions: plethora of culture cells; cited from earlier work
[5] = tested on: primary microglial cells; assay: Nitrite production (Griess) in LPS-treated primary microglia; conditions: 1 μM 1 h, then LPS 10 μg/mL 24 h
[6] = Metabolic stability in human liver microsomes; type: in vitro ADME; conditions: HLM
Method: In the assay, the reaction was initiated by adding HLM (1 mg/mL) to an equal volume of buffer solution containing the test compound and cofactors at the proper concentrations. Reactions without NADPH were also incubated to rule out non-NADPH metabolism or chemical instability in the incubation buffer. Verapamil was included as a positive control to monitor incubation course. All reactions were terminated using 60 µL of ice-cold acetonitrile at 0, 5, 15, 30, 45, and 60 min. The plates were centrifugated at 3500 rpm for 15 min. All experiments were conducted in triplicate. Samples were monitored for B06 disappearance by LC-MS in MRM mode according to a quantitation method for B06. […]
concentration 1 μM, protein concentration 1 mg/mL, NADPH, 1.3 mM. Potassium phosphate buffer (100 mM) pH 7.4 and human liver microsomes, were purchased from Beckton Dickinson. […]
needed for the study was Beckman Coulter Refrigerated centrifuge, Agilent 1290 Infinity Liquid Chromatograph, CTC Analytics PAL HT‐xt injector, Api4000 Mass Spectrometer. Total incubation […]
Analysis: For the data analysis the area ratio of analyzed versus internal standard was used to calculate the percentage of remaning compound at each incubation time. The natural logarithm of […]
the following equation: Half‐life (T1/2) (min) = 0.693/k (the slope of the natural log of the percent remaining versus time). Intrinsic clearance was determined by the following equation: Clint H = Ln 2/t1/2 (min) x volume incubation (mL)/microsomal protein (mg) x 45 (MPPGL) 1500 g human liver/ 70 Kg human body weight. Units for CLint are usually expressed as mL/min/mg microsomal protein, MPPGL = referred to as mg microsomal protein per gram liver.
Table S1. Summary of LC‐MS conditions
Table S2. Percentage of verapamil remaining at each incubation time […]

[7] = tested on: SH-SY5Y cells; assay: Nitrite production (Griess) in 6-OHDA-treated SH-SY5Y cells; type: cell-based, human; conditions: 1 μM, 6-OHDA 25 μM 16 h
Text: Along with the neuronal loss, neuroinflammation is a process related to the onset of the disease, and it is an important contributor to the pathogenesis and progression of these disorders. […] .

[8] = tested on: primary astrocytes; assay: Nitrite production (Griess) in LPS-treated primary astrocytes; conditions: 1 μM 1 h, then LPS 10 μg/mL 24 h
[9] = tested on: SH-SY5Y cells; assay: Protection of SH-SY5Y cells from 6-OHDA-induced death (MTT); conditions: 6-OHDA 25 μM 16 h

## CCOP(=O)(OCC)[C@]1(c2ccccc2)N=C[C@H]2C(=O)N(c3ccc(F)c(Cl)c3)C(=O)[C@H]21 (racemic) [B06, diethyl (1RS,3aSR,6aSR)-5-(3-chloro-4-fluorophenyl)-4,6-dioxo-1-phenyl-1,3a,4,5,6,6a-hexahydropyrrolo[3,4-c]pyrrole-1-phosphonate]
[1]; 0 min
  remaining percentage in mouse plasma: 100%
[1]; 10 min
  remaining percentage in mouse plasma: 100%
[1]; 20 min
  remaining percentage in mouse plasma: 69.7%
[1]; 40 min
  remaining percentage in mouse plasma: 48.3%
[1]; 60 min
  remaining percentage in mouse plasma: 21.6%
[2]
  effect on body temperature: hypothermia
[3]; minus NADPH, 0 min
  % compound remaining: 105.00 ± 23.97%
[3]; minus NADPH, 60 min
  % compound remaining: 83.20 ± 2.87%
[3]; plus NADPH, 0 min
  % compound remaining: 100.00 ± 25.58%
[3]; plus NADPH, 5 min
  % compound remaining: 135.00 ± 7.06%
[3]; plus NADPH, 15 min
  % compound remaining: 67.50 ± 4.15%
[3]; plus NADPH, 30 min
  % compound remaining: 30.30 ± 5.28%
[3]; plus NADPH, 45 min
  % compound remaining: 15.20 ± 1.98%
[3]; plus NADPH, 60 min
  % compound remaining: 6.08 ± 0.01%
[3]; mouse, microsomes
  half-life at 1 μM: 16.2 min
[4]
  cytotoxicity: devoid of cytotoxicity
[5]
  effect on nitrite production: significant decrease in nitrite production
[6]; classification bands low/medium/high
  hepatic clearance category: medium clearance
[6]; minus NADPH, 0 min
  % compound remaining: 103.2 ± 13.82%
[6]; minus NADPH, 60 min
  % compound remaining: 75.30 ± 1.27%
[6]; plus NADPH, 0 min
  % compound remaining: 100.00 ± 14.46%
[6]; plus NADPH, 5 min
  % compound remaining: 98.60 ± 9.11%
[6]; plus NADPH, 15 min
  % compound remaining: 77.90 ± 13.20%
[6]; plus NADPH, 30 min
  % compound remaining: 54.10 ± 6.84%
[6]; plus NADPH, 45 min
  % compound remaining: 41.3 ± 5.83%
[6]; plus NADPH, 60 min
  % compound remaining: 29.40 ± 3.69%
[6]; human, human liver microsomes, pH 7.4, 1 µM, 1 mg/mL protein
  half-life at 1 μM: 28.4 min
[7]
  effect on nitrite production: significantly reversed the increase in nitrite production
[8]
  effect on nitrite production: significant decrease in nitrite production
[9]; 1 μM, 1 h pre-treatment
  protection from 6-OHDA-induced cell death: significantly rescued human dopaminergic cells from 6-OHDA-induced apoptosis
[9]; dose-response, MTT
  lowest concentration at which the most beneficial effect was obtained: 1 µM
